# ChEMBL document CHEMBL4725307, “Topical 'dual-soft' glucocorticoid receptor agonist for dermatology” (Bioorg Med Chem Lett, 2020)
# How the values were obtained:
# Glucocorticoid receptor = molecular target: T1, Glucocorticoid receptor (Homo sapiens, UniProt P04150); experiment: Agonist activity at human glucocorticoid receptor in PBMC assessed as inhibition of LPS-induced TNFalpha release; type: tissue-based
# T1 sequence (P04150 whole entry): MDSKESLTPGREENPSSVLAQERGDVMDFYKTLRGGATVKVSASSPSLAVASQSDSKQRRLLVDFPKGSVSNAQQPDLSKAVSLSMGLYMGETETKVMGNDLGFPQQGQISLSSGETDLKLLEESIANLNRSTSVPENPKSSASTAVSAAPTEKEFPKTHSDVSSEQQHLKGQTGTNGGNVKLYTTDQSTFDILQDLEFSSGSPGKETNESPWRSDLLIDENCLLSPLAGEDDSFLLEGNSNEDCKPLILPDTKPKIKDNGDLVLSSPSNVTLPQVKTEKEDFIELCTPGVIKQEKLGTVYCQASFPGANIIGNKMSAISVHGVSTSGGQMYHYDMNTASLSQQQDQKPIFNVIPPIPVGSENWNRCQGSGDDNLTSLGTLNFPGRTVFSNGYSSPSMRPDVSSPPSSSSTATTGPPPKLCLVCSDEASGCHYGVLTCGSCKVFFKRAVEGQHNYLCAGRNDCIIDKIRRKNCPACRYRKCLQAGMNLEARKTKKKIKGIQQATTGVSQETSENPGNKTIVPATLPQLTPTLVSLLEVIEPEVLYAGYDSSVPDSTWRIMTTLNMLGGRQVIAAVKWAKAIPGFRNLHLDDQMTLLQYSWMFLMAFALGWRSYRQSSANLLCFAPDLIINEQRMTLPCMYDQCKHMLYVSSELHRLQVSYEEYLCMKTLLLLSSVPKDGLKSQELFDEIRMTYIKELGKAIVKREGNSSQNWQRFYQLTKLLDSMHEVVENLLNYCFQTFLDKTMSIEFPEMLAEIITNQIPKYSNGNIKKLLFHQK
# [1] = Half life in human whole blood; type: ADME, tissue-based
# [2] = molecular target: Voltage-gated inwardly rectifying potassium channel KCNH2 (Homo sapiens, UniProt Q12809); experiment: Inhibition of human ERG
# Homo sapiens [3] = organism: Homo sapiens; experiment: Selectivity ratio for agonist activity at mineralocorticoid receptor (unknown origin) to agonist activity at glucocorticoid receptor (unknown origin)
# Homo sapiens [4] = organism: Homo sapiens; experiment: Selectivity ratio for agonist activity at progesterone receptor (unknown origin) to agonist activity at glucocorticoid receptor (unknown origin)
# Cytochrome P450 = experiment: Inhibition of CYP450 (unknown origin); type: protein assay; details: human
# [5] = Hepatic clearance in iv dosed rat; type: ADME, organism-based; details: in vivo
# Homo sapiens [6] = organism: Homo sapiens; experiment: Selectivity ratio for agonist activity at androgen receptor (unknown origin) to agonist activity at glucocorticoid receptor (unknown origin)
# [7] = Drug metabolism in pig hepatocytes assessed as (3R)-3-(hydroxymethyl)-4-oxo-4-[(3S)-3-[[5-[(1R,2S)-1-(p-tolyl)-2-[(2,2,2-trifluoroacetyl)amino]propoxy]pyridine-2-carbonyl]amino]-1-piperidyl]butanoic acid metabolite formation; type: ADME, cell-based, Sus scrofa, Hepatocyte
# [8] = Chemical stability assessed as parent compound remaining at pH 7 and 37 degreeC measured after 16 hrs; type: physicochemical; details: buffer, read-out: Stabilty
# [9] = Half life in cultured human keratinocytes; type: ADME, cell-based, Keratinocyte
# [10] = Drug metabolism in human whole blood assessed as (3R)-3-(hydroxymethyl)-4-oxo-4-[(3S)-3-[[5-[(1R,2S)-1-(p-tolyl)-2-[(2,2,2-trifluoroacetyl)amino]propoxy]pyridine-2-carbonyl]amino]-1-piperidyl]butanoic acid metabolite formation; type: ADME, tissue-based
# [11] = Drug metabolism in rat whole blood assessed as (3R)-3-(hydroxymethyl)-4-oxo-4-[(3S)-3-[[5-[(1R,2S)-1-(p-tolyl)-2-[(2,2,2-trifluoroacetyl)amino]propoxy]pyridine-2-carbonyl]amino]-1-piperidyl]butanoic acid metabolite formation; type: ADME, tissue-based
# [12] = Drug metabolism in dog hepatocytes assessed as (3R)-3-(hydroxymethyl)-4-oxo-4-[(3S)-3-[[5-[(1R,2S)-1-(p-tolyl)-2-[(2,2,2-trifluoroacetyl)amino]propoxy]pyridine-2-carbonyl]amino]-1-piperidyl]butanoic acid metabolite formation; type: ADME, cell-based, Canis lupus familiaris, Hepatocyte
# [13] = Drug metabolism in human hepatocytes assessed as (3R)-3-(hydroxymethyl)-4-oxo-4-[(3S)-3-[[5-[(1R,2S)-1-(p-tolyl)-2-[(2,2,2-trifluoroacetyl)amino]propoxy]pyridine-2-carbonyl]amino]-1-piperidyl]butanoic acid metabolite formation; type: ADME, cell-based, Hepatocyte
# [14] = Drug metabolism in pig whole blood assessed as (3R)-3-(hydroxymethyl)-4-oxo-4-[(3S)-3-[[5-[(1R,2S)-1-(p-tolyl)-2-[(2,2,2-trifluoroacetyl)amino]propoxy]pyridine-2-carbonyl]amino]-1-piperidyl]butanoic acid metabolite formation; type: ADME, tissue-based, Sus scrofa
# [15] = Chemical stability assessed as parent compound remaining at pH 5.5 and 37 degreeC measured after 16 hrs; type: physicochemical; details: buffer, read-out: Stabilty
# [16] = Drug metabolism in dog whole blood assessed as (3R)-3-(hydroxymethyl)-4-oxo-4-[(3S)-3-[[5-[(1R,2S)-1-(p-tolyl)-2-[(2,2,2-trifluoroacetyl)amino]propoxy]pyridine-2-carbonyl]amino]-1-piperidyl]butanoic acid metabolite formation; type: ADME, tissue-based, Canis lupus familiaris
# [17] = Drug metabolism in rat hepatocytes assessed as (3R)-3-(hydroxymethyl)-4-oxo-4-[(3S)-3-[[5-[(1R,2S)-1-(p-tolyl)-2-[(2,2,2-trifluoroacetyl)amino]propoxy]pyridine-2-carbonyl]amino]-1-piperidyl]butanoic acid metabolite formation; type: ADME, cell-based, Hepatocyte
# [18] = Photostability of the compound; type: physicochemical
# [19] = molecular target: T2, Glucocorticoid receptor (Homo sapiens) (UniProt P04150); experiment: Agonist activity at human glucocorticoid receptor assessed as inhibition of LPS-induced TNFalpha release in PBMC relative to control; type: tissue-based
# T2 sequence (whole entry): T1 sequence (P04150 whole entry)
# Voltage-gated inwardly rectifying potassium channel KCNH2, sequence (Q12809 whole entry): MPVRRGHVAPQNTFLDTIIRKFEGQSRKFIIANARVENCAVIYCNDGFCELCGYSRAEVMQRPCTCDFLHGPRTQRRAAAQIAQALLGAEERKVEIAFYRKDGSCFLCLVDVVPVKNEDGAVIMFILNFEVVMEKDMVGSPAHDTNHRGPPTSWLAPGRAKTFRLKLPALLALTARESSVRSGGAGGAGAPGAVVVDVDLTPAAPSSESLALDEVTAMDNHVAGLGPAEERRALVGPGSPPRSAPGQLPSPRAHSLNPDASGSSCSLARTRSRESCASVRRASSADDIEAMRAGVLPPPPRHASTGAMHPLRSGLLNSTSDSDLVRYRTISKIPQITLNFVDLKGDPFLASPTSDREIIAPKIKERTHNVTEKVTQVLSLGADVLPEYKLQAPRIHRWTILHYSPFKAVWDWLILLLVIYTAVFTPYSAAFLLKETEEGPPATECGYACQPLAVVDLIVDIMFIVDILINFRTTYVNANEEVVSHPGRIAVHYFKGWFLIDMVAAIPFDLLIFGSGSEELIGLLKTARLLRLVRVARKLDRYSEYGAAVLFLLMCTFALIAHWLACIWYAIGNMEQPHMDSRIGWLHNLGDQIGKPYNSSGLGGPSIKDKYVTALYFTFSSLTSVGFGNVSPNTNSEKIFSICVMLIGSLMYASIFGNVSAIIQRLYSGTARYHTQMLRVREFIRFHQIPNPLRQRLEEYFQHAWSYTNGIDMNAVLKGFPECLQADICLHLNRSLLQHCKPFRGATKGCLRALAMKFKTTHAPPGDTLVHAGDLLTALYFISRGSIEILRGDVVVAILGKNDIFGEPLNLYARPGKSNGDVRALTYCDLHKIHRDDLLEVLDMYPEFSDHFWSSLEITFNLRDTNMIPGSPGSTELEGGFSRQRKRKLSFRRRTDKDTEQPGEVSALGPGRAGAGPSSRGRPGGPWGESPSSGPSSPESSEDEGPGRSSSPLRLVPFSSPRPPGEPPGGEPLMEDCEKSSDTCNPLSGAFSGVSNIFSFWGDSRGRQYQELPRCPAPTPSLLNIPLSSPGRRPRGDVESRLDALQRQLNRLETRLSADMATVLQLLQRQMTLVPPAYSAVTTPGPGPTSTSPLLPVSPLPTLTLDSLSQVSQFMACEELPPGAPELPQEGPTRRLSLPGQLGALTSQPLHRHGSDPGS
compound,measurement,setting,value
Cc1ccc([C@@H](Oc2ccc3c(cnn3-c3ccc(F)cc3)c2)[C@H](C)NC(=O)C(F)(F)F)cc1,IC50,Glucocorticoid receptor,2 nM
Cc1ccc([C@@H](Oc2ccc(C(=O)N[C@H]3CCCN(C(=O)[C@@H]4CCC(=O)O4)C3)nc2)[C@H](C)NC(=O)C(F)(F)F)cc1,half-life,[1],1.38 h
C[C@H](NC(=O)C(F)(F)F)[C@H](Oc1ccc(C(=O)O[C@H]2CCCN(C(=O)[C@H]3COC(=O)C3)C2)cc1)c1ccc(C2CC2)cc1,IC50,Glucocorticoid receptor,1 nM
C[C@H](NC(=O)[C@H]1CCCO1)[C@H](Oc1ccc(C(=O)O[C@H]2CCCN(C(=O)[C@H]3COC(=O)C3)C2)cc1)c1ccc(C2CC2)cc1,inhibition (INH),[2],Not Active
same,Selectivity ratio,Homo sapiens [3],> 100
same,Selectivity ratio,Homo sapiens [4],> 100
same,IC50,Glucocorticoid receptor,2 nM
same,inhibition (INH),Cytochrome P450,Not Active
same,CLH,[5],500 mL/min/kg
same,Selectivity ratio,Homo sapiens [6],> 100
Cc1ccc([C@@H](Oc2ccc(C(=O)N[C@@H]3CCCN(C(=O)[C@H]4CCC(=O)O4)C3)nc2)[C@H](C)NC(=O)C(F)(F)F)cc1,half-life,[1],0.85 h
Cc1ccc([C@@H](Oc2ccc(C(=O)N[C@H]3CCCN(C(=O)[C@H]4COC(=O)C4)C3)nc2)[C@H](C)NC(=O)C(F)(F)F)cc1,Drug metabolism,[7],Metabolite_Detected
same,remaining at 16 h,[8],82%
same,half-life,[9],> 6 h
same,Drug metabolism,[10],Metabolite_Detected
same,Drug metabolism,[11],Metabolite_Detected
same,Drug metabolism,[12],Metabolite_Detected
same,half-life,[1],< 0.167 h
same,Drug metabolism,[13],Metabolite_Detected
same,Drug metabolism,[14],Metabolite_Detected
same,remaining at 16 h,[15],> 95%
same,Drug metabolism,[16],Metabolite_Detected
same,Drug metabolism,[17],Metabolite_Detected
same,Stabilty,[18],Stable
Cc1ccc([C@@H](Oc2ccc(C(=O)Nc3ccccc3)nc2)[C@H](C)NC(=O)C(F)(F)F)cc1,IC50,Glucocorticoid receptor,26 nM
Cc1ccc([C@@H](Oc2ccc(C(=O)N[C@@H]3CCCN(C(=O)[C@@H]4COC(=O)C4)C3)nc2)[C@H](C)NC(=O)C(F)(F)F)cc1,half-life,[1],0.283 h
C[C@H](NC(=O)[C@H]1CCCO1)[C@H](Oc1ccc(C(=O)O[C@H]2CCCN(C(=O)[C@@H](CO)CC(=O)O)C2)cc1)c1ccc(C2CC2)cc1,fold change (FC),[19],> 100
Cc1ccc([C@@H](Oc2ccc(C(=O)N[C@@H]3CCCN(C(=O)[C@H]4COC(=O)C4)C3)nc2)[C@H](C)NC(=O)C(F)(F)F)cc1,half-life,[9],> 6 h
same,half-life,[1],< 0.167 h
Cc1ccc([C@@H](Oc2ccc(C(=O)N[C@@H]3CCCN(C(=O)[C@@H]4CCC(=O)O4)C3)nc2)[C@H](C)NC(=O)C(F)(F)F)cc1,half-life,[1],0.733 h
C[C@H](NC(=O)[C@@H]1CCCO1)[C@H](Oc1ccc(C(=O)O[C@H]2CCCN(C(=O)[C@H]3COC(=O)C3)C2)cc1)c1ccc(C2CC2)cc1,IC50,Glucocorticoid receptor,22 nM
Cc1ccc([C@@H](Oc2ccc(C(=O)N[C@H]3CCCN(C(=O)[C@H]4CCC(=O)O4)C3)nc2)[C@H](C)NC(=O)C(F)(F)F)cc1,half-life,[9],> 6 h
same,half-life,[1],> 2 h
Cc1ccc([C@@H](Oc2ccc(C(=O)N[C@H]3CCCN(C(=O)[C@H]4COC(=O)C4)C3)cc2)[C@H](C)NC(=O)C(F)(F)F)cc1,IC50,Glucocorticoid receptor,79 nM
Cc1ccc([C@@H](Oc2ccc(C(=O)N[C@H]3CCCN(C(=O)[C@@H]4COC(=O)C4)C3)nc2)[C@H](C)NC(=O)C(F)(F)F)cc1,half-life,[9],> 6 h
same,half-life,[1],1.7 h
